# According to ChEMBL document CHEMBL3875217, “Identification of a melampomagnolide B analog as a potential lead molecule for treatment of acute myelogenous leukemia” (Bioorg Med Chem, 2017):
# Key:
# [1] = Antileukemic activity against human M9-ENL1 cells assessed as increase in apoptotic cell level after 24 hrs by Annexin V/propidium iodide/7-AAD based FACS analysis; type: functional; conditions: M9-ENL1, 24 h
# [2] = Oral bioavailability in BALB/c mouse at 271.2 mg/kg by LC/MS/MS analysis; type: ADME, organism-based; conditions: in vivo
# [3] = Apparent elimination half life in BALB/c mouse at 271.2 mg/kg, po by LC/MS/MS analysis; type: ADME, organism-based; conditions: in vivo
# [4] = Cmax in BALB/c mouse at 271.2 mg/kg, po by LC/MS/MS analysis; type: ADME, organism-based; design: dose 271.2 mg/kg, route oral; conditions: in vivo
# [5] = Tmax in BALB/c mouse at 271.2 mg/kg, po by LC/MS/MS analysis; type: ADME, organism-based; conditions: in vivo
# [6] = Drug uptake in BALB/c mouse Plasma at 271.2 mg/kg, po after 15 mins by LC/MS/MS analysis; type: ADME, organism-based; conditions: in vivo, 0.25 h
# [7] = Potency index, ration of parthenolide EC50 to compound EC50 for human M9-ENL1 cells; type: functional
# [8] = Drug uptake in BALB/c mouse blood at 271.2 mg/kg, po after 15 mins by LC/MS/MS analysis; type: ADME, organism-based; conditions: in vivo, 0.25 h
# [9] = AUC in BALB/c mouse at 200 mg/kg, po by LC/MS/MS analysis; type: ADME, organism-based; conditions: in vivo
# [10] = Total clearance in BALB/c mouse at 27.1 mg/kg, iv or 271.2 mg/kg, po by LC/MS/MS analysis; type: ADME, organism-based; conditions: in vivo
# [11] = Drug uptake in BALB/c mouse blood at 200 mg/kg, po after 15 mins by LC/MS/MS analysis; type: ADME, organism-based; conditions: in vivo, 0.25 h
# [12] = Apparent elimination half life in BALB/c mouse at 200 mg/kg, po by LC/MS/MS analysis; type: ADME, organism-based; conditions: in vivo
# [13] = Oral bioavailability in BALB/c mouse at 200 mg/kg by LC/MS/MS analysis; type: ADME, organism-based; conditions: in vivo
# [14] = Tmax in BALB/c mouse at 200 mg/kg, po by LC/MS/MS analysis; type: ADME, organism-based; conditions: in vivo
# [15] = Total clearance in BALB/c mouse at 20 mg/kg, iv or 200 mg/kg, po by LC/MS/MS analysis; type: ADME, organism-based; conditions: in vivo
# [16] = Cmax in BALB/c mouse at 200 mg/kg, po by LC/MS/MS analysis; type: ADME, organism-based; design: dose 200 mg/kg, route oral; conditions: in vivo
smiles,measurement,setting,value
C=C1C(=O)O[C@H]2[C@H]1CC/C(COC(=O)NCc1nc3ccccc3[nH]1)=C\CC[C@@]1(C)O[C@@H]21,EC50,[1],3900 nM
C=C1C(=O)O[C@H]2[C@H]1CC/C(COC(=O)n1ccnc1)=C\CC[C@@]1(C)O[C@@H]21,F,[2],45.5%
same,betat1/2(app),[3],92.3 min
same,Cmax,[4],10.6 µM
same,Tmax,[5],0.502 h
same,Drug uptake,[6],Active
same,Ratio EC50,[7],8
same,EC50,[1],900 nM
same,Drug uptake,[8],Active
same,AUC,[9],2137.5 µmol·min/L
same,clearance,[10],200 mL/min/kg
C=C1C(=O)O[C@H]2[C@H]1CC/C(COC(=O)n1cc(C)nc1CC)=C\CC[C@@]1(C)O[C@@H]21,EC50,[1],1400 nM
C=C1C(=O)O[C@H]2[C@H]1CC/C(COC(=O)Nc1nc3ccccc3[nH]1)=C\CC[C@@]1(C)O[C@@H]21,EC50,[1],1600 nM
C=C1C(=O)O[C@H]2[C@H]1CC/C(COC(=O)n1ccnc1C)=C\CC[C@@]1(C)O[C@@H]21,EC50,[1],2100 nM
C=C1C(=O)O[C@@H]2[C@H]3O[C@]3(C)CC/C=C(\C)CC[C@@H]12,EC50,[1],7000 nM
C=C1C(=O)O[C@H]2[C@H]1CC/C(CO)=C\CC[C@@]1(C)O[C@@H]21,Drug uptake,[11],Active
same,betat1/2(app),[12],61.8 min
same,F,[13],6.7%
same,Tmax,[14],2 h
same,EC50,[1],15500 nM
same,AUC,[9],868.3 µmol·min/L
same,clearance,[15],70 mL/min/kg
same,Cmax,[16],4.5 µM
